Test results as given in PubChem BioAssay AID588600 (Sanford-Burnham Center for Chemical Genomics, 2011).

Biological target: Sentrin-specific protease 7 (Homo sapiens) (UniProt Q9BQF6)
Assay: inhibition of human SENP7 cleavage activity – biochemical, luminescence, set 2, SAR follow-up (AID 588600)
Details: recombinant SENP7, Z-RLRGG-aminoluciferin, 40 min

Chain of Sentrin-specific protease 7 (Homo sapiens) (Q9BQF6 706-1050 limits assumed): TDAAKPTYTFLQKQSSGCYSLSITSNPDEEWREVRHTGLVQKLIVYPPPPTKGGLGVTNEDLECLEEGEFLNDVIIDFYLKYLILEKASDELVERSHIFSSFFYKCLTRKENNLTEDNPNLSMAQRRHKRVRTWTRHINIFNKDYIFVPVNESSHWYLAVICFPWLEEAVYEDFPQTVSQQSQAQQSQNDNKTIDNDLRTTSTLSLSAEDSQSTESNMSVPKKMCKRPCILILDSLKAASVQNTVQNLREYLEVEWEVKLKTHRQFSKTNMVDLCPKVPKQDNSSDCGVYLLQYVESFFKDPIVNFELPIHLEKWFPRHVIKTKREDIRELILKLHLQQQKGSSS

COc1ccccc1OCc1nc(-c2ccccc2Cl)no1
IC50: 2.08 µM

CN(C)c1ccc(/C=C/c2noc(-c3ccccc3O)n2)cc1
IC50: 1.65 µM
